The nature of data set [1]: Parallel artificial membrane permeability assay (PAMPA), commercial kit. The class given is in vitro ADME. To be noted: PBS, room temperature, read-out: Parallel artificial membrane permeability assay (PAMPA) Permeability (log Pe [cm/s]) (converted). The method, then:
To evaluate the Parallel Artificial Membrane Permeability Assay (PAMPA) of selected compounds, an assessment of permeability was done using a commercial PAMPA kit. Selected compounds were evaluated over a range of concentrations by 300 μl of PBS containing the compound to the bottom donor plate. Selected compounds were from DMSO stocks and the final DMSO concentration in the donor wells was one percent. 200 μl of blank PBS was added to the top receiver plate. The plates were allowed to incubate at room temperature. After 5 hours, aliquots were taken from the donor and receiver plates and the concentration of drug was determined. Compound permeability was calculated using the equation [formula] where Pe is expressed in units of cm/s, CA(t) is drug concentration in the acceptor at time t, VD is donor well volume, VA is acceptor well volume, A is the area of the filter (0.3 cm^2), t is time in seconds, and Ceq=[CD(t)*VD+CA(t)*VA]/(VD+VA).
(In general: The PAMPA barrier holds no transporters, so it reflects passive diffusion.)

The nature of another data set: Plasma stability. The class given is in vitro ADME. To be noted: C57BL/6; 10 μM in undiluted mouse plasma, 37° C., out to four hours; read-out: plasma stability (t1/2, mouse). The method, then:
To evaluate the plasma stability of selected compounds, 10 μM of each selected compound was incubated with undiluted plasma. Plasma was freshly obtained from C57BBl\6 mice drawn in the vivarium and used immediately. Plasma was brought to 37° C. within a 96-well plate and then the compound is introduced via a DMSO stock solution. The sample was continually shaken at 37° C. and aliquots are removed at multiple time points out to four hours. Aliquots were added to acetonitrile (5× v:v) to stop any enzymatic activity and held on ice. At the end of the assay, the samples were centrifuged through a Millipore Multiscreen Solvinter 0.45 micron low binding PTFE hydrophilic filter plate and analyzed by LC-MS/MS. Data was log transformed and represented as half-life.

The nature of a further data set: Cytotoxicity (Table 1). The class given is cell-based.
A short description of data set [2]: Cytotoxicity screening in MRC5 (CellTiter Glo, fluorescence microscopy). The class given is cell-based. To be noted: human, MRC5 cells. How it is done:
(§1) To evaluate the cytotoxicity of selected compounds, cell viability assays (CellTiter Glo) were conducted. Each compound (compound 21 or compound 37) was plated in triplicate starting at their respective stock concentration. They were serially diluted column-wise for ten 3× dilutions using DMSO as the diluent. Staurosporine was used as positive control for DRC (dose response curve), and was plated starting at 1.25 mM. This plate was used as a source plate to make the assay plates by transferring 0.1 μl into 25 μl assay volume to reach the right working concentration for each compound. HepG2 and MRC5 were plated at a density of 1500 cells/25 μl in well in the assay plate and allowed to settle overnight. 0.1 μL of compounds was then transferred from the source plate, into the cell assay plates. The cells were left to incubate with the compounds for 48 hours, after which, 25 μL of Promega Cell Titer-Glo was added to each well, and allowed to incubate at room temperature with shaking for 20 minutes. RLU's (Relative Light Units) for each well were then recorded on a BioTek Synergy NEO. Fluorescence microscopy was also used to evaluate the cytotoxicity of selected compounds. Cells were plated at a density of 1500 cells/25 μl in well in a 384 wells plate the day before incubation with the drugs. The following day, 0.1 μl of the source plate are added to the assay plate. Then, 25 μl of a fluorophores mixture containing Hoechst 33342, Syto17 diluted in Eagle's Minimum Essential Medium (EMEM) was added to each well. Plates are read after 48 hours of incubation in the ImageXpress instrument (Molecular Devices) using the appropriate filters.

In a further data set the test system is HepG2. As to the kind of experiment: Cytotoxicity screening in HepG2 (CellTiter Glo, fluorescence microscopy). The data set is classed as cell-based. To be noted: Homo sapiens, 48 hours. How it is done:
as §1
(In general: ATP-based viability assays read luminescence as a measure of living cells.)

Data set [3] can be described thus: Hepatic microsomal stability, 1 mg/mL hepatic microsomes. The data set is classed as in vitro ADME. The note with it: C57BL/6, mouse, liver microsomes, pH 7.4, 1 μM compound, NADPH, read-out: microsomal stability (t1/2, mouse): 1 mg/mL hepatic microsomes. How it is done: To evaluate the hepatic microsomal stability of selected compounds, 1 μM of each selected compound was incubated with 1 mg/mL hepatic microsomes in 100 mM KPi, pH 7.4. The microsomes were obtained from C57BL/6 mice. The reaction was initiated by adding NADPH (1 mM final concentration). Aliquots were removed at 0, 5, 10, 20, 40, and 60 minutes and added to acetonitrile (5× v:v) to stop the reaction and precipitate the protein. NADPH dependence of the reaction is evaluated with —NADPH samples. At the end of the assay, the samples were centrifuged through a Millipore Multiscreen Solvinter 0.45 micron low binding PTFE hydrophilic filter plate and analyzed by LC-MS/MS. Data was log transformed and represented as half-life.

Data set [4] concerns Trypanosoma cruzi parasites. As to the kind of experiment: Trypanosoma cruzi in vitro IC50 (structure-activity analyses). The data set is classed as cell-based. To be noted: infection with Trypanosoma cruzi parasites for 72 hours and treatment with the compound for 72 hours. How it is done: Select compounds described herein were evaluated for structure-activity analyses in vitro.

Setting [5] is: read-out: MRC5 IC50, Cell Count.
Where [6] appears, read: read-out: MRC5 IC50, Cellular ATP.
Setting [7] is: read-out: MRC5 IC50, Membrane Integrity.
[8] abbreviates: read-out: HepG2 IC50, Cell Count.
Where [9] appears, read: read-out: HepG2 IC50, Cellular ATP.
Setting [10] is: read-out: HepG2 IC50, Membrane Integrity.

Broadly, the IC50 is the point on the concentration scale where inhibition reaches its midpoint.

Like-named read-outs stand apart in the source and are kept apart here.

With `CN(C)CC#Cc1cccc(-c2nc(C(=O)NCc3ccc4c(c3)OCO4)cc3c2[C@@H](CCO)N([S@+]([O-])C(C)(C)C)C3)c1` [compound 21, (R)-N-(Benzo[d][1,3]dioxol-5-ylmethyl)-2-((R)-tert-butylsulfinyl)-4-(3-(3-(dimethyl-amino)prop-1-yn-1-yl)phenyl)-3-(2-hydroxyethyl)-2,3-dihydro-1H-pyrrolo[3,4-c]pyridine-6-carboxamide], the Papp at 5 h in data set [1] was 0.055 ×10⁻⁶ cm/s. Besides, the half-life at 10 μM in the data set “Plasma stability” was above 240 min. Further, the Cytotoxicity in the data set “Cytotoxicity (Table 1)” is above 10 µM. Also, the figures for the IC50 at 48 h in data set [2] (setting [5]), in data set [2] (setting [6]) and in data set [2] (setting [7]) were 63.7 µM, 44.7 µM and 24.4 µM, respectively. Further, the IC50 in the data set with HepG2 (setting [8]) was 51.3 µM; with HepG2 (setting [9]), 52.5 µM; with HepG2 (setting [10]), 62.1 µM; in data set [4] it was 54 nM. Further, the half-life at 1 μM in data set [3] came out at 3.9 min.

Consider `CN(C)CC#Cc1cccc(-c2nc(C(=O)N[C@@H]3CCN(Cc4ccccc4)C3)cc3c2[C@@H](CCO)N([S@+]([O-])C(C)(C)C)C3)c1` [compound 37, (R)-N-((R)-1-Benzylpyrrolidin-3-yl)-2-((R)-tert-butylsulfinyl)-4-(3-(3-(dimethylamino)prop-1-yn-1-yl)phenyl)-3-(2-hydroxyethyl)-2,3-dihydro-1H-pyrrolo[3,4-c]pyridine-6-carboxamide], for which, in data set [1], the Papp at 5 h is 5.75 ×10⁻⁶ cm/s. Besides, the half-life at 10 μM in “Plasma stability” is above 240 min. Further, in the data set “Cytotoxicity (Table 1)”, the Cytotoxicity is above 10 µM. Besides, the IC50 at 48 h in data set [2] (setting [5]) was found to be 64.2 µM; in data set [2] (setting [6]) it was 54.1 µM; in data set [2] (setting [7]), 13.4 µM. Further, the IC50 with HepG2 (setting [8]) amounted to 56.2 µM; in the data set with HepG2 (setting [9]), 54.2 µM; in the data set on HepG2 (setting [10]) it was 90.6 µM; in data set [4], 48 nM. In addition, the half-life at 1 μM in data set [3] is 1.3 min.

The values are drawn from patent US12071436B2, “Anti-parasitic compounds and uses thereof” (Memorial Sloan-Kettering Cancer Center, priority 2016, dated 2024).
